Here are results for three compounds from US20070098782A1, “Ramipril Formulation” (Selamine Limited, priority 2005, published 2007).

Data set [1] in a line: 1 mg/ml ramipril solution in buffer, principal impurity after 12 hours at 50° C. It is filed as physicochemical. Here is the method:
An experiment was carried out in which 50 mg of ramipril was dispersed in 50 ml water and known concentrations of buffer were added. The solutions were placed in a stoppered bottle and stored for 12 hours at 50° C.

The target of data set [2] is angiotensin converting enzyme (ACE) (Homo sapiens, UniProt P12821). To be noted: cited from earlier work.
Where [3] appears, read: buffer Sodium carbonate 0.24 mg/ml.
Where [4] appears, read: buffer Sodium carbonate 0.74 mg/ml.
Setting [5] is: buffer Sodium carbonate 1.00 mg/ml.
Where [6] appears, read: buffer Sodium citrate 0.72 mg/ml.
Where [7] appears, read: buffer Sodium citrate 1.00 mg/ml.
Setting [8] is: buffer Sodium citrate 1.90 mg/ml.

angiotensin converting enzyme (ACE), sequence (P12821 30-1306, species assumed): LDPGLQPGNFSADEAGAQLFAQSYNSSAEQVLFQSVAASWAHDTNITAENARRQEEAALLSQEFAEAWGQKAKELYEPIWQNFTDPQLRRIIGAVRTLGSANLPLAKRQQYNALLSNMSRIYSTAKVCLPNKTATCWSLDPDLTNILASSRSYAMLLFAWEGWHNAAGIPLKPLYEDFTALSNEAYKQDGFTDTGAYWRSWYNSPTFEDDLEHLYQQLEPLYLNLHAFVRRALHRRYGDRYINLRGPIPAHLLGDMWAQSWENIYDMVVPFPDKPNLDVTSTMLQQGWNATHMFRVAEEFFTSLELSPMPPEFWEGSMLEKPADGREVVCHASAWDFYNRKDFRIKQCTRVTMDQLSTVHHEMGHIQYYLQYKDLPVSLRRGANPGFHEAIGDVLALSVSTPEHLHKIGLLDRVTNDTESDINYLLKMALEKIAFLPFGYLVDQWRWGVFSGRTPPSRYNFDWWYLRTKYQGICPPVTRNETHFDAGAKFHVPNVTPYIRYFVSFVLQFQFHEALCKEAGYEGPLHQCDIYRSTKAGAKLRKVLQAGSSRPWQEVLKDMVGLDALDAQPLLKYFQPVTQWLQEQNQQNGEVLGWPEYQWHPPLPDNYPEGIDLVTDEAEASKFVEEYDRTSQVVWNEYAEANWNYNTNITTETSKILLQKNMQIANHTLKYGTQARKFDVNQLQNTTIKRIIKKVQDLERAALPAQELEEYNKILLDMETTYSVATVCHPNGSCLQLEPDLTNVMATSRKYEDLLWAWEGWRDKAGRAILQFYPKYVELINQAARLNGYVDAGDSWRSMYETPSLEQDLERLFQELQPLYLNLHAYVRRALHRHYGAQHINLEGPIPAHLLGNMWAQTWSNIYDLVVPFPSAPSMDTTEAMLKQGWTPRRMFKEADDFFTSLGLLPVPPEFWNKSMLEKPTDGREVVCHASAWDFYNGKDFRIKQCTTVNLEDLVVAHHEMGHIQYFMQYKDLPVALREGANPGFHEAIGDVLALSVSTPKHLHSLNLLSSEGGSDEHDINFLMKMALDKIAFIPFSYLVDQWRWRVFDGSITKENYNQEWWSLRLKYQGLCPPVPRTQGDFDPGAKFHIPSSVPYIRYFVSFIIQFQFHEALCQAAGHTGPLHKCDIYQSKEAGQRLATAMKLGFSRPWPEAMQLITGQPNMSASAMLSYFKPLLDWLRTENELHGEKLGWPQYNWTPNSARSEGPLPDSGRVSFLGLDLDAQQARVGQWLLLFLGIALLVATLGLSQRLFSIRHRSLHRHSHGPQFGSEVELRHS

As for `CCOC(=O)[C@H](CCc1ccccc1)N[C@@H](C)C(=O)N1[C@H](C(=O)O)C[C@@H]2CCC[C@@H]21` [Ramipril, (2S,3aS,6aS)-1[(S)-N-[(S)-1-carboxy-3-phenylpropyl]alanyl] octahydrocyclopenta[b]pyrrole-2-carboxylic acid, 1-ethyl ester], the “Impurity D” value in data set [1] (buffer L arginine 1.44 mg/ml) is given as 0.16%; in data set [1] (setting [3]), 0.22%; in data set [1] (setting [4]), 0.19%; in data set [1] (setting [5]), 0.17%; in data set [1] (setting [6]), 0.22%; in data set [1] (setting [7]) it was 0.23%. Also, in data set [1] (setting [8]), the “Impurity D” value came out at 0.20%. The “Impurity E” value was determined as 13.7% in data set [1] (buffer L arginine 1.44 mg/ml); 9.9% in data set [1] (setting [3]); 11.3% in data set [1] (setting [4]); 15.2% in data set [1] (setting [5]); 8.2% in data set [1] (setting [6]); 8.4% in data set [1] (setting [7]). In data set [1] (setting [8]), the “Impurity E” value stood at 7.5%.

On to ramipril diketopiperazine, for which the “activity as an ACE inhibitor” value in data set [2] is listed as “not active”.

Turning to `C[C@H](N[C@@H](CCc1ccccc1)C(=O)O)C(=O)N1[C@H](C(=O)O)C[C@@H]2CCC[C@@H]21` [ramiprilat], the “potency as an ACE inhibitor relative to the parent compound ramipril” value in data set [2] (compared with ramipril) was “up to 6 times”.
